Measured values from ChEMBL document CHEMBL5625209, “Rational design and optimization of acylthioureas as novel potent influenza virus non-nucleoside polymerase inhibitors” (Eur J Med Chem, 2023).
Activity calls are given as the source filed them. The calls are words filed in the database; no cut-off is given here.

Assays:
[1] = Metabolic stability in dog liver microsomes assessed as hepatic extraction ratio preincubated for 5 mins followed by NADPH addition and measured upto 45 mins by LC-MS analysis; type: ADME, Canis lupus familiaris, Microsome; conditions: time < 50 min
[2] = Metabolic stability in dog liver microsomes assessed as half life preincubated for 5 mins followed by NADPH addition and measured upto 45 mins by LC-MS analysis; type: ADME, Canis lupus familiaris, Microsome; conditions: time < 50 min
[3] = Metabolic stability in human liver microsomes assessed as hepatic extraction ratio preincubated for 5 mins followed by NADPH addition and measured upto 45 mins by LC-MS analysis; type: ADME, Microsome; conditions: time < 50 min
[4] = Metabolic stability in dog liver microsomes assessed as intrinsic clearance preincubated for 5 mins followed by NADPH addition and measured upto 45 mins by LC-MS analysis; type: ADME, Canis lupus familiaris, Microsome; conditions: time < 50 min, read-out: CLH
[5] = Metabolic stability in human liver microsomes assessed as half life preincubated for 5 mins followed by NADPH addition and measured upto 45 mins by LC-MS analysis; type: ADME, Microsome; conditions: time < 50 min
[6] = Metabolic stability in human liver microsomes assessed as intrinsic clearance preincubated for 5 mins followed by NADPH addition and measured upto 45 mins by LC-MS analysis; type: ADME, Microsome; conditions: time < 50 min, read-out: CLH
[7] = Metabolic stability in mouse liver microsomes assessed as half life preincubated for 5 mins followed by NADPH addition and measured upto 45 mins by LC-MS analysis; type: ADME, Microsome; conditions: time < 50 min
[8] = Metabolic stability in mouse liver microsomes assessed as intrinsic clearance preincubated for 5 mins followed by NADPH addition and measured upto 45 mins by LC-MS analysis; type: ADME, Microsome; conditions: time < 50 min, read-out: CLH
[9] = Metabolic stability in dog liver microsomes assessed as hepatic clearance preincubated for 5 mins followed by NADPH addition and measured upto 45 mins by LC-MS analysis; type: ADME, Canis lupus familiaris, Microsome; conditions: time < 50 min
[10] = Metabolic stability in mouse liver microsomes assessed as hepatic clearance preincubated for 5 mins followed by NADPH addition and measured upto 45 mins by LC-MS analysis; type: ADME, Microsome; conditions: time < 50 min
[11] = Metabolic stability in human liver microsomes assessed as hepatic clearance preincubated for 5 mins followed by NADPH addition and measured upto 45 mins by LC-MS analysis; type: ADME, Microsome; conditions: time < 50 min
[12] = Metabolic stability in mouse liver microsomes assessed as hepatic extraction ratio preincubated for 5 mins followed by NADPH addition and measured upto 45 mins by LC-MS analysis; type: ADME, Microsome; conditions: time < 50 min
[13] = tested on: Influenza A virus; assay: Antiviral activity against Influenza A virus H1N1 (A/Puerto Rico/8/34) infected in MDCK cells assessed as reduction in NP protein level at 10 uM in presence of rGTP by Western blot analysis; type: functional, organism-based
[14] = tested on: Influenza A virus; assay: Antiviral activity against Influenza A virus H1N1 (A/Puerto Rico/8/34) infected in MDCK cells assessed as reduction in NP protein level at 10 uM in presence of 125 uM rNTP by Western blot analysis; type: functional, organism-based
[15] = tested on: Influenza A virus; assay: Antiviral activity against Influenza A virus H1N1 (A/Puerto Rico/8/34) infected in MDCK cells assessed as reduction in NP protein level at 10 uM in presence of rATP by Western blot analysis; type: functional, organism-based
[16] = tested on: Influenza B virus; assay: Antiviral activity against influenza B virus B/Yamagata/16/88 infected in MDCK cells; type: functional, organism-based; conditions: B/Yamagata/16/88, MDCK
[17] = Cytotoxicity against MDCK cells by CCK-8 assay; type: toxicity, cell-based, Canis lupus familiaris; conditions: dog
[18] = Selectivity index, ratio of CC50 for MDCK cells to EC50 for antiviral activity against Influenza A virus H1N1 (A/Puerto Rico/8/34) infected in MDCK cells; type: toxicity, cell-based; conditions: dog, read-out: Ratio CC50/EC50
[19] = Tmax in Sprague-Dawley rat at 3 mg/kg, iv measured up to 24 hrs by LC-MS analysis; type: ADME, organism-based; conditions: in vivo
[20] = AUC(0 to t) in Sprague-Dawley rat at 10 mg/kg, po measured up to 24 hrs by LC-MS analysis; type: ADME, organism-based; conditions: in vivo
[21] = tested on: Influenza B virus; assay: Antiviral activity against influenza B virus Victoria/2/87 infected in MDCK cells; type: functional, organism-based; conditions: Victoria/2/87, MDCK
[22] = AUC(0 to infinity) in Sprague-Dawley rat at 10 mg/kg, po measured up to 24 hrs by LC-MS analysis; type: ADME, organism-based; conditions: in vivo
[23] = Oral bioavailability in Sprague-Dawley rat at 10 mg/kg measured up to 24 hrs by LC-MS analysis; type: ADME, organism-based; conditions: in vivo
[24] = AUC(0 to infinity) in Sprague-Dawley rat at 3 mg/kg, iv measured up to 24 hrs by LC-MS analysis; type: ADME, organism-based; conditions: in vivo
[25] = AUC(0 to t) in Sprague-Dawley rat at 3 mg/kg, iv measured up to 24 hrs by LC-MS analysis; type: ADME, organism-based; conditions: in vivo
[26] = Half life in Sprague-Dawley rat at 3 mg/kg, iv measured up to 24 hrs by LC-MS analysis; type: ADME, organism-based; conditions: in vivo
[27] = Half life in Sprague-Dawley rat at 10 mg/kg, po measured up to 24 hrs by LC-MS analysis; type: ADME, organism-based; conditions: in vivo
[28] = Tmax in Sprague-Dawley rat at 10 mg/kg, po measured up to 24 hrs by LC-MS analysis; type: ADME, organism-based; conditions: in vivo
[29] = Cmax in Sprague-Dawley rat at 10 mg/kg, po measured up to 24 hrs by LC-MS analysis; type: ADME, organism-based; conditions: in vivo
[30] = Cmax in Sprague-Dawley rat at 3 mg/kg, iv measured up to 24 hrs by LC-MS analysis; type: ADME, organism-based; conditions: in vivo
[31] = tested on: Influenza A virus; assay: Antiviral activity against Influenza A virus H1N1 (A/Puerto Rico/8/34) infected in MDCK cells assessed as reduction in virus-induced cytopathic effect incubated for 48 hrs by CCK8 assay; type: functional, organism-based
[32] = Clearance in Sprague-Dawley rat at 3 mg/kg, iv measured up to 24 hrs by LC-MS analysis; type: ADME, organism-based; conditions: in vivo
[33] = tested on: Influenza A virus; assay: Antiviral activity against Influenza A virus H1N1 (A/Puerto Rico/8/34) infected in MDCK cells assessed as reduction in NP viral RNA level at 10 uM treated at 1 hr post infection by qRT-PCR analysis; type: functional, organism-based
[34] = tested on: Influenza A virus; assay: Antiviral activity against Influenza A virus H1N1 (A/Puerto Rico/8/34) infected in MDCK cells assessed as reduction in NP protein level at 10 uM treated at 1 hr post infection by Western blot analysis; type: functional, organism-based
[35] = tested on: Influenza A virus; assay: Inhibition of Influenza A virus RdRp activity assessed as reduction in Fluc/Rluc ratio at 0.1 to 10 uM; conditions: dose 0.1-10 µM
[36] = tested on: Influenza A virus; assay: Antiviral activity against Influenza A virus H1N1 (A/Puerto Rico/8/34) infected in MDCK cells assessed as reduction in NP protein level at 1 uM in presence of 1000 uM rNTP by Western blot analysis; type: functional, organism-based
[37] = Metabolic stability in human plasma after 15 mins by LC-MS/MS analysis; type: ADME, cell-free; conditions: 0.25 h, BLD = below limit of detection
[38] = Metabolic stability in human plasma assessed as half life measured upto 120 mins by LC-MS/MS analysis; type: ADME, cell-free
[39] = Metabolic stability in human plasma measured upto 120 mins by LC-MS/MS analysis; type: ADME, cell-free; conditions: 2 h

O=C(c1ccc(F)cc1)C1CCN(CCn2c(=O)[nH]c3ccccc3c2=O)CC1 [KETANSERIN]
hepatic extraction ratio at 0.75 h [1]: 69.7%
half-life [2]: 48.5 min
hepatic extraction ratio at 0.75 h [3]: 69.3%
CLint scaled [4]: 4.27 L/h/kg
half-life [5]: 37.2 min
CLint scaled [6]: 2.8 L/h/kg
half-life [7]: 18.6 min
CLint scaled [8]: 17.6 L/h/kg
CLhep predicted [9]: 1.29 L/h/kg
CLhep predicted [10]: 4.13 L/h/kg
CLhep predicted [11]: 0.86 L/h/kg
hepatic extraction ratio at 0.75 h [12]: 76.5%

NC(=O)c1ncn([C@@H]2O[C@H](CO)[C@@H](O)[C@H]2O)n1
Activity [13]: inactive
Activity [14]: Active
Activity [15]: inactive

CCC(=O)Nc1ccc(NC(=S)NC(=O)c2ccc(C(C)(C)C)cc2)cc1
EC50 [16]: 2.5 µM
CC50 [17]: 86.9 µM
selectivity ratio [18]: 5430
Tmax [19]: 4.8 min
AUC(0-t) at 24 h [20]: 0.034 µg·h/mL
EC50 [21]: 3.1 µM
AUC(0-inf) [22]: 0.036 µg·h/mL
bioavailability [23]: 0.83%
AUC ([24]; iv, 3 mg/kg, 24 h): 1.236 µg·h/mL
AUC(0-t) at 24 h [25]: 1.24 µg·h/mL
half-life [26]: 51 min
half-life [27]: 113 min
Tmax [28]: 25.2 min
Cmax [29]: 0.013 µg/mL
Cmax [30]: 3.65 µg/mL
EC50 [31]: 0.016 µM

CC(C)(C)c1ccc(C(=O)NC(=S)Nc2ccc(O)cc2)cc1
EC50 [16]: 4 µM
CC50 [17]: 77.7 µM
selectivity ratio [18]: 3880
Tmax [19]: 4.8 min
AUC(0-t) at 24 h [20]: 0.0443 µg·h/mL
EC50 [21]: 5.2 µM
bioavailability [23]: 1.21%
AUC(0-inf) ([24]; Sprague-Dawley): 1.1 µg·h/mL
clearance [32]: 2.78 L/h/kg
AUC(0-t) at 24 h [25]: 1.09 µg·h/mL
half-life [26]: 30.6 min
Tmax [28]: 94.8 min
Cmax [29]: 0.0128 µg/mL
Cmax [30]: 2.52 µg/mL
EC50 [31]: 0.02 µM

NC12CC3CC(CC(C3)C1)C2
Activity [33]: Active
Activity [34]: Active

CC(=O)N[C@H]1[C@H]([C@H](O)[C@H](O)CO)OC(C(=O)O)=C[C@@H]1NC(=N)N [ZANAMIVIR]
inhibition [35]: inactive
Activity [36]: Active
EC50 [31]: 0.065 µM

CCN(CC)CCOC(=O)c1ccc(N)cc1 [PROCAINE]
Stability [37]: Bld
half-life [38]: 1.12 min
Stability [39]: Unstable
